Tested on: epileptic seizures
Assay: Clinical treatment of the inventor's child with mixed epileptic seizure types (case report)
Type: in vivo, human
Conditions: for effect on the child's epileptic seizures: onset, hundreds of seizures a day, substance given without cannabis extract
Description: The inventor has a child, who, experienced an abrupt onset of hundreds of absence seizures a day that developed into mixed epileptic seizure types, including absence, focal, atonic, myoclonic-atonic, tonic, and eventually a 10-hour status epilepticus seizure. The Inventor was told their child would die in their sleep from SUDEP and no medication will be able to treat them. […] The child is […] now and has developed normally.

C=C(C)[C@@H]1CCC(C)=C[C@H]1c1c(O)cc(CCCCC)cc1O [CBD, cannabidiol]
effect on the child's epileptic seizures: neither did CBD alone

CC[C@@H](C(N)=O)N1CCCC1=O [Keppra, Levetiracetam]
side effects (child with intractable seizures, Keppra without cannabis extract): side effects of nausea and “Keppra rage” | effect on the child's epileptic seizures: reduced the frequency of the seizures but could not fully control them

From US20240252450A1, “TREATMENT FOR EPILEPTIC SEIZURES” (priority 2021, published 2024)
